{"source": "patent US7879876B2", "about": "“Sulfonamide derivatives and use thereof for the modulation of metalloproteinases” (Merck Serono SA, priority 2005, dated 2011)"}
{"target": "MMP13 (Homo sapiens, UniProt P45452)", "test": "MMP13 inhibition (Table 1)", "assay_type": "biochemical", "conditions": "@ 0.1 μM; read-out: percentage inhibition MMP13", "units": {"inhibition at 0.1 µM": "%"}}
{"molecule": "COc1ccc(C(CS(=O)(=O)N2CCc3ccccc3C2)N(O)C=O)cn1", "note": "(stereo not drawn) [Example 13, N-[2-(3,4-dihydroisoquinolin-2(1H)-ylsulfonyl)-1-(6-methoxypyridin-3-yl)ethyl]-N-hydroxyformamide]", "inhibition at 0.1 µM": 28}
{"molecule": "O=CN(O)C(CCc1ccccc1)CS(=O)(=O)N1CCc2ccccc2C1", "note": "(stereo not drawn) [Example 1, N-{1-[(3,4-dihydroisoquinolin-2(1H)-ylsulfonyl)methyl]-3-phenylpropyl}-N-hydroxyformamide]", "inhibition at 0.1 µM": 15}
{"target": "MMP13 (Homo sapiens, UniProt P45452)", "test": "MMP13 inhibition (Table 1)", "assay_type": "biochemical", "conditions": "@ 5 μM; read-out: percentage inhibition MMP13", "units": {"inhibition at 5 µM": "%"}}
{"molecule": "COc1ccc(C(CS(=O)(=O)N2CCc3ccccc3C2)N(O)C=O)cn1", "note": "(stereo not drawn) [Example 13, N-[2-(3,4-dihydroisoquinolin-2(1H)-ylsulfonyl)-1-(6-methoxypyridin-3-yl)ethyl]-N-hydroxyformamide]", "inhibition at 5 µM": 96}
{"molecule": "O=CN(O)C(CCc1ccccc1)CS(=O)(=O)N1CCc2ccccc2C1", "note": "(stereo not drawn) [Example 1, N-{1-[(3,4-dihydroisoquinolin-2(1H)-ylsulfonyl)methyl]-3-phenylpropyl}-N-hydroxyformamide]", "inhibition at 5 µM": 97}
{"molecule": "COc1cc2c(cc1OC)CN(S(=O)(=O)CC(CCc1ccccc1)N(O)C=O)CC2", "note": "(stereo not drawn) [Example 12, N-(1-{[(6,7-dimethoxy-3,4-dihydroisoquinolin-2(1H)-yl)sulfonyl]methyl}-3-phenylpropyl)-N-hydroxyformamide]", "inhibition at 5 µM": 48}
{"tested_on": "IL-2-induced peritoneal recruitment of lymphocytes", "test": "IL-2-induced peritoneal recruitment of lymphocytes", "assay_type": "in vivo, C3H/HEN mice", "conditions": "Mus musculus, Lymphocyte, po; 3 mg/kg p.o., 15 min prior to IL-2; mice; 24 h after IL-2", "method": "Administration of IL-2 intraperitoneally causes migration of lymphocytes into the intraperitoneal cavity. This is a model for the cellular migration that occurs during inflammation.\nC3H/HEN mice (Elevage Janvier, France) were intraperitoneally injected with IL-2 (Serono Pharmaceutical Research Institute, 20 μg/kg, in saline). Compounds of the invention were suspended in 0.5% carboxymethylcellulose (CMC)/0.25% tween-20 and were administered by s.c. or p.o. route (10 ml/kg) 15 min prior to administration of IL-2.\nTwenty-four hours after administration of IL-2, peritoneal white blood cells were collected by 3 successive lavages of the peritoneal cavity with 5 ml phosphate buffered saline (PBS)-1 mM EDTA (+4° C.). The suspension was centrifuged (1700 g×10 min at +4° C.). The resulting pellet was suspended in 1 ml PBS-1 mM EDTA.\nLymphocytes were identified and counted using a Beckman/Coulter counter.\nThe animals were divided into 6 groups (6 mice each group):\nGroup 1: (baseline) received 0.5% CMC/0.25% tween-20 (vehicle of compound of the invention) and saline (vehicle of IL-2);\nGroup 2: (control IL-2) received 0.5% CMC/0.25% tween-20 and injection of IL-2;\nGroup 3: Experimental group (Compound of the invention Dose 1) received a compound of the invention and injection of IL-2;\nGroup 4: Experimental group (Compound of the invention Dose 2) received a compound of the invention and injection of IL-2;\nGroup 5: Experimental group (Compound of the invention Dose 3) received a compound of the invention and injection of IL-2;\nGroup 6: Reference group received reference compound dexamethasone and injection of IL-2.\nInhibition of lymphocyte recruitment was calculated as follows:\nWhere Ly 1=Number of lymphocytes in group 1 (E3/μl), Ly 2=Number of lymphocytes in group 2 (E3/μl), Ly X=Number of lymphocytes in group X (3-5) (E3/μl).", "units": {"inhibition in vivo at 3 mg/kg": "%"}}
{"molecule": "O=CN(O)C(CCC(F)(F)F)CS(=O)(=O)N1CCc2ccc(Cl)cc2C1", "note": "(stereo not drawn) [Example 76, N-(1-{[(7-chloro-3,4-dihydroisoquinolin-2(1H)-yl)-sulfonyl]methyl}-4,4,4-trifluorobutyl)-N-hydroxyformamide]", "inhibition in vivo at 3 mg/kg": "45 ± 11"}
{"molecule": "CC(C)(C)CC(CS(=O)(=O)N1CCc2cc(Cl)c(Cl)cc2C1)N(O)C=O", "note": "(stereo not drawn) [Example 42, N-(1-{[(6,7-dichloro-3,4-dihydroisoquinolin-2(1H)-yl)-sulfonyl]methyl}-3,3-dimethylbutyl)-N-hydroxyformamide]", "inhibition in vivo at 3 mg/kg": "40 ± 10"}
{"molecule": "CC(C)(CS(=O)(=O)N1CCc2ccc(Br)cc2C1)N(O)C=O", "note": "[Example 56, N-{2-[(7-bromo-3,4-dihydroisoquinolin-2(1H)-yl)sulfonyl]-1,1-dimethylethyl}-N-hydroxyformamide]", "inhibition in vivo at 3 mg/kg": "37 ± 8"}
{"molecule": "CC1(C)OC[C@H](C(CS(=O)(=O)N2CCc3ccc(C(F)(F)F)cc3C2)N(O)C=O)O1", "note": "(stereo partly drawn) [Example 28, N-(1-[(4S)-2,2-dimethyl-1,3-dioxolan-4-yl]-2-{[7-(trifluoro-methyl)-3,4-dihydroisoquinolin-2(1H)-yl]sulfonyl}ethyl)-N-hydroxyformamide]", "inhibition in vivo at 3 mg/kg": "62 ± 5"}
{"molecule": "O=CN(O)C1(CS(=O)(=O)N2CCc3ccc(Cl)cc3C2)CCCC1", "note": "[Example 62, N-(1-{[(7-chloro-3,4-dihydroisoquinolin-2(1H)-yl)-sulfonyl]methyl}cyclopentyl)-N-hydroxyformamide]", "inhibition in vivo at 3 mg/kg": "20 ± 9"}
{"molecule": "O=CN(O)C(CS(=O)(=O)N1CCc2ccc(-c3ccncc3)cc2C1)C1CCCC1", "note": "(stereo not drawn) [Example 79, N-{1-cyclopentyl-2-[(7-pyridin-4-yl-3,4-dihydroisoquinolin-2(1H)-yl)sulfonyl]ethyl}-N-hydroxyformamide]", "inhibition in vivo at 3 mg/kg": "43 ± 10"}
{"molecule": "CC(C)c1ccc2c(c1)CCN(S(=O)(=O)CC([C@H]1COC(C)(C)O1)N(O)C=O)C2", "note": "(stereo partly drawn) [Example 18, N-{1-[(4S)-2,2-dimethyl-1,3-dioxolan-4-yl]-2-[(6-isopropyl-3,4-dihydroisoquinolin-2(1H)-yl)sulfonyl]ethyl}-N-hydroxyformamide]", "inhibition in vivo at 3 mg/kg": "39 ± 7"}
{"molecule": "O=CN(O)C(CS(=O)(=O)N1Cc2ccccc2C1)C1CC1", "note": "(stereo not drawn) [Example 72, N-[1-cyclopropyl-2-(1,3-dihydro-2H-isoindol-2-ylsulfonyl)-ethyl]-N-hydroxyformamide]", "inhibition in vivo at 3 mg/kg": "41 ± 7"}
{"molecule": "O=CN(O)C(COc1ccccc1)CS(=O)(=O)N1CCc2ccc(Cl)cc2C1", "note": "(stereo not drawn) [Example 61, N-[2-[(7-chloro-3,4-dihydroisoquinolin-2(1H)-yl)sulfonyl]-1-(phenoxymethyl)ethyl]-N-hydroxyformamide]", "inhibition in vivo at 3 mg/kg": "45 ± 9"}
{"molecule": "O=CN(O)[C@H](CS(=O)(=O)N1CCc2ccc(C(F)(F)F)cc2C1)[C@H]1CCCO1", "note": "[Example 27, N-hydroxy-N-((1S)-1-[(2R)-tetrahydrofuran-2-yl]-2-{[7-(trifluoromethyl)-3,4-dihydroisoquinolin-2(1H)-yl]sulfonyl}ethyl)formamide]", "inhibition in vivo at 3 mg/kg": "46 ± 9"}
{"molecule": "CC(C)C(CS(=O)(=O)N1CCc2ccc(-c3ccc(F)cc3)cc2C1)N(O)C=O", "note": "(stereo not drawn) [Example 50, N-[1-({[7-(4-fluorophenyl)-3,4-dihydroisoquinolin-2(1H)-yl]sulfonyl}methyl)-2-methylpropyl]-N-hydroxyformamide]", "inhibition in vivo at 3 mg/kg": "32 ± 4"}
{"molecule": "O=CN(O)C(CS(=O)(=O)N1CCc2ccc(-c3ccc(F)cc3)cc2C1)C1CC1", "note": "(stereo not drawn) [Example 75, N-(1-cyclopropyl-2-{[7-(4-fluorophenyl)-3,4-dihydro-isoquinolin-2(1H)-yl]sulfonyl}ethyl)-N-hydroxyformamide]", "inhibition in vivo at 3 mg/kg": "26 ± 11"}
{"molecule": "O=CN(O)[C@H](CS(=O)(=O)N1Cc2ccc(F)cc2C1)[C@H]1CCCO1", "note": "[Example 29, N-{(1S)-2-[(5-fluoro-1,3-dihydro-2H-isoindol-2-yl)-sulfonyl]-1-[(2R)-tetrahydrofuran-2-yl]ethyl}-N-hydroxyformamide]", "inhibition in vivo at 3 mg/kg": "29 ± 11"}
{"molecule": "CC(C)(Cc1ccccc1)C(CS(=O)(=O)N1CCc2cc(C(F)(F)F)ccc2C1)N(O)C=O", "note": "(stereo not drawn) [Example 31, N-[2,2-dimethyl-3-phenyl-1-({[6-(trifluoromethyl)-3,4-dihydroisoquinolin-2(1H)-yl]sulfonyl}methyl)propyl]-N-hydroxyformamide]", "inhibition in vivo at 3 mg/kg": "31 ± 10"}
{"molecule": "O=CN(O)C(CS(=O)(=O)N1CCc2ccc(-c3ccsc3)cc2C1)C1CCCC1", "note": "(stereo not drawn) [Example 68, N-(1-cyclopentyl-2-{[7-(3-thienyl)-3,4-dihydroisoquinolin-2(1H)-yl]sulfonyl}ethyl)-N-hydroxyformamide]", "inhibition in vivo at 3 mg/kg": "33 ± 7"}
{"molecule": "O=CN(O)C(CO)CS(=O)(=O)N1CCc2cc(Cl)c(Cl)cc2C1", "note": "(stereo not drawn) [Example 49, N-[2-[(6,7-dichloro-3,4-dihydroisoquinolin-2(1H)-yl)-sulfonyl]-1-(hydroxymethyl)ethyl]-N-hydroxyformamide]", "inhibition in vivo at 3 mg/kg": "16 ± 12"}
{"molecule": "CC1(C)OC[C@H](C(CS(=O)(=O)N2CCc3ccc(Cl)cc3C2)N(O)C=O)O1", "note": "(stereo partly drawn) [Example 19, N-{2-[(7-chloro-3,4-dihydroisoquinolin-2(1H)-yl)sulfonyl]-1-[(4S)-2,2-dimethyl-1,3-dioxolan-4-yl]ethyl}-N-hydroxyformamide]", "inhibition in vivo at 3 mg/kg": "62 ± 9"}
{"molecule": "CC1(C)OC[C@H](C(CS(=O)(=O)N2Cc3ccccc3C2)N(O)C=O)O1", "note": "(stereo partly drawn) [Example 16, N-{2-(1,3-dihydro-2H-isoindol-2-ylsulfonyl)-1-[(4S)-2,2-dimethyl-1,3-dioxolan-4-yl]ethyl}-N-hydroxyformamide]", "inhibition in vivo at 3 mg/kg": "44 ± 7"}
{"molecule": "O=CN(O)C(COCc1ccccc1)CS(=O)(=O)N1CCc2ccc(C(F)(F)F)cc2C1", "note": "(stereo not drawn) [Example 59, N-[2-(benzyloxy)-1-({[7-(trifluoromethyl)-3,4-dihydro-isoquinolin-2(1H)-yl]sulfonyl}methyl)ethyl]-N-hydroxyformamide]", "inhibition in vivo at 3 mg/kg": "55 ± 9"}
{"molecule": "CCC(CC)C(CS(=O)(=O)N1CCc2cc(C(C)C)ccc2C1)N(O)C=O", "note": "(stereo not drawn) [Example 35, N-(2-ethyl-1-{[(6-isopropyl-3,4-dihydroisoquinolin-2(1H)-yl)sulfonyl]methyl}butyl)-N-hydroxyformamide]", "inhibition in vivo at 3 mg/kg": "50 ± 8"}
{"molecule": "O=CN(O)C(CS(=O)(=O)N1CCc2ccc(Cl)cc2C1)C1CCCC1", "note": "(stereo not drawn) [Example 21, N-{2-[(7-chloro-3,4-dihydroisoquinolin-2(1H)-yl)sulfonyl]-1-cyclopentylethyl}-N-hydroxyformamide]", "inhibition in vivo at 3 mg/kg": "43 ± 9"}
{"molecule": "O=CN(O)C(CS(=O)(=O)N1CCc2cc(C(F)(F)F)ccc2C1)C1CCCC1", "note": "(stereo not drawn) [Example 25, N-(1-cyclopentyl-2-{[6-(trifluoromethyl)-3,4-dihydro-isoquinolin-2(1H)-yl]sulfonyl}ethyl)-N-hydroxyformamide]", "inhibition in vivo at 3 mg/kg": "37 ± 7"}
